From US20150157588A1, “Pharmaceutical Composition Comprising Amino-Phenyl-Acetic Acid Octadec-(Z)-9-enyl Ester and Use Thereof for Treating Tumors” (Yeda Research and Development Co., Ltd., priority 2012, published 2015)

How the values were obtained:
[1] = test system: freshly isolated mouse B cells; assay: Spontaneous apoptosis by hypo-diploid nuclei PI staining, primary B cells; format: cell-based; settings: 1 or 100 μg/ml in ethanol solution
Protocol: Apoptosis was measured by FACS analysis with a hypo-diploid nuclei propidium iodide (PI) staining of freshly isolated mouse B cells treated with amino-phenyl-acetic acid octadec-(Z)-9-enyl ester in ethanol solution. FIGS. 5A-5C: L-12 cells treated with 0, 1 or 100 μg/ml of amino-phenyl-acetic acid octadec-(Z)-9-enyl ester, respectively; FIGS. 5D-5F: L-12 cells treated with 0, 1 or 100 μg/ml of the control reagent 4-methyl-piperazino-acetic acid ethyl ester, respectively; and FIGS. 5G-5I: L-12 cells treated with an ethanol volume corresponding to 0, 1 or to 100 μg/ml of amino-phenyl-acetic acid octadec-(Z)-9-enyl ester in ethanol solution, respectively.
(§1) B or T-cell apoptosis was detected by flow cytometry. […] The cells were then subjected to flow cytometric analysis; for each sample 10,000 were collected and cell-cycle distribution was analyzed according to relative DNA content (PI staining). […] The cells were then collected, stained by APO-DIRECT TUNNEL kit (Phnxflow, CITY, Calif., USA); mitochondrial potential was measured by DePsipher (R&D Systems, Minneapolis, Minn.) according to the manufacturer's procedure. Intracellular caspase activity was measured by Apostat kit (R&D Systems), according to the manufacturer's procedure. The cells were analyzed by Flow cytometry using FACSort (Becton Dickinson) and CellQuest software (Becton Dickinson). […]

[2] = test system: p53 expressing L-12 mouse B cell line; assay: Apoptosis by hypo-diploid nuclei PI staining, transformed B cell line; format: cell-based; settings: 10 or 100 μg per ml in 5% ethanol solution, 48 h
Protocol: Apoptosis was measured by FACS analysis with a hypo-diploid nuclei propidium iodide (PI) staining of an amino-phenyl-acetic acid octadec-(Z)-9-enyl ester treated p53 expressing L-12 mouse B cell line. FIGS. 4A-4C: L-12 cells treated with 0, 10 or 100 μg/ml of amino-phenyl-acetic acid octadec-(Z)-9-enyl ester in ethanol solution, respectively; FIGS. 4D-4F: L-12 cells treated with 0, 10 or 100 μg/ml of the control reagent 4-methyl-piperazino-acetic acid ethyl ester in ethanol solution, respectively; and FIGS. 4G-4I: L-12 cells treated with an ethanol volume corresponding to 0, 10 or 100 μg/ml of amino-phenyl-acetic acid octadec-(Z)-9-enyl ester, respectively. FL2-A is the measure of fluorescence. […]
as §1

CCOC(=O)CN1CCN(C)CC1 [4-methyl-piperazino-acetic acid ethyl ester, reference compound]
spontaneous apoptosis / cell-cycle of primary B cells [1]: had no effect | apoptosis / cell cycle (cells in sub-GO state) [2]: had no effect
